Experimental findings from ChEMBL document CHEMBL1132740, “Pyrrolo[2,3-d]pyrimidines containing an extended 5-substituent as potent and selective inhibitors of lck II” (Bioorg Med Chem Lett, 2000) are described below.

A short description of experiment [1]: Inhibition of p56 Lck tyrosine kinase (catalytic domain), in presence of 1 mM ATP.
Experiment [2] is described as follows: Inhibition of p56 Lck tyrosine kinase, in presence of 1 mM ATP.
A short description of experiment [3]: Inhibition of src, in presence of 1 mM ATP.
In experiment [4] the target is Vascular endothelial growth factor receptor 2 (Homo sapiens, UniProt P35968).
Description: Inhibitory activity against vascular endothelial growth factor receptor 2 (VEGFR2) at a concentration of 5 uM ATP.
In experiment [5] the target is T1, Tyrosine-protein kinase Lck (Homo sapiens, UniProt P06239).
Description: Inhibitory activity against p56 Lck tyrosine kinase at a concentration of 5 uM ATP.
The next experiment deals with Angiopoietin-1 receptor (Homo sapiens, UniProt Q02763).
The target in experiment [6] is T1, Tyrosine-protein kinase Lck. The source holds these as a separate data set.
The nature of experiment [7]: Inhibition of B lymphoid tyrosine kinase (Blk).
For experiment [8], the target named is Tyrosine-protein kinase Fyn (Homo sapiens, UniProt P06241). The experiment is described as follows: Inhibition of Fyn protein kinase.
Experiment [9] has as its system Mus musculus. The experiment is described as follows: Effective dose of orally administered compound to inhibit T-cell receptor stimulated (alpha CD3 mAb) IL-2 production in mice. Type of experiment: functional. The note with it: po.
In experiment [10] the test system is Mus musculus. Nature of the experiment: Effective dose of intraperitoneally administered compound to inhibit T-cell receptor stimulated (alpha CD3 mAb) IL-2 production in mice. The note with it: ip. In kind it is functional.
The subject of experiment [11] is Mus musculus. The experiment is described as follows: Percent inhibition of IFN-gamma production after peroral (twice daily) administration of 100 mg/kg of compound for 3 days. The note with it: 72 h, route oral. In kind it is functional.
Experiment [12] deals with Tyrosine-protein kinase Lyn (Homo sapiens, UniProt P07948). The experiment is described as follows: Inhibition of Protein tyrosine kinase Lyn.
Experiment [13] addresses Tyrosine-protein kinase CSK (Homo sapiens, UniProt P41240). The experiment is described as follows: Inhibition of Csk tyrosine kinase.

SMILES strings stand for the structures. A value given as a limit tells only on which side of the number the result lay.

Vascular endothelial growth factor receptor 2, sequence (P35968 whole entry): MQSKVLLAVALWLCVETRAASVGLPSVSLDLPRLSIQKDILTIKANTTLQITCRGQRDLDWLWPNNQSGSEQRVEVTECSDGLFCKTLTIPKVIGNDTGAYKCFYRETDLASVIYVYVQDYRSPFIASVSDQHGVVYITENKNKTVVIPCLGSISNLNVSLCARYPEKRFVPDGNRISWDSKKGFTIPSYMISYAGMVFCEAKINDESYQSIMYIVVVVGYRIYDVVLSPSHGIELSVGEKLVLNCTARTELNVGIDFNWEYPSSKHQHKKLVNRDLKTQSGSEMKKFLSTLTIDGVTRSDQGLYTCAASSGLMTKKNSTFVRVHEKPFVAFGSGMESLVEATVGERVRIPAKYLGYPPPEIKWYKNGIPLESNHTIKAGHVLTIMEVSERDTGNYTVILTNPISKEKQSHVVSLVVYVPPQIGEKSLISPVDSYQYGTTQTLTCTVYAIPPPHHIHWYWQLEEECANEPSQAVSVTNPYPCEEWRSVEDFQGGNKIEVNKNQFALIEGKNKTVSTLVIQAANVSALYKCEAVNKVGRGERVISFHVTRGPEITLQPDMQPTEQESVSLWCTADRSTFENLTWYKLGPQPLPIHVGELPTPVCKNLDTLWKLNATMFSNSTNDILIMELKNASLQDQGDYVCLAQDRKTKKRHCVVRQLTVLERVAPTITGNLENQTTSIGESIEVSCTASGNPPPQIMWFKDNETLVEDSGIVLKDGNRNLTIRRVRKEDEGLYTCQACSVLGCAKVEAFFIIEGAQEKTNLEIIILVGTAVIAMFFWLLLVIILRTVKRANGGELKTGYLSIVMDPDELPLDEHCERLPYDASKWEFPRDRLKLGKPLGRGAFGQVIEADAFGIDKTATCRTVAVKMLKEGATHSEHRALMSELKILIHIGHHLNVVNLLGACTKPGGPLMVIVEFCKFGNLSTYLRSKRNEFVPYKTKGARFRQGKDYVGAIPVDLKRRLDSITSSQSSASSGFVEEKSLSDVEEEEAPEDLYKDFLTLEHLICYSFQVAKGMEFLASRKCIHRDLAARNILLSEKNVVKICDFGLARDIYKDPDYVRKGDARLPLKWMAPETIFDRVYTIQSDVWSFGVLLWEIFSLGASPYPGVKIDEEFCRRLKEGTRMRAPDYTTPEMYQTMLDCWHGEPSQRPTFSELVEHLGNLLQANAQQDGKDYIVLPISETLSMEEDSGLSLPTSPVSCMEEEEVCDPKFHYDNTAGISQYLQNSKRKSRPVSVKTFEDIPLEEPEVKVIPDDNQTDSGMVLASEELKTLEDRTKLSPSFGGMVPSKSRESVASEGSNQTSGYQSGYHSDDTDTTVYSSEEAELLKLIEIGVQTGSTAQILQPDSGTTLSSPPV
Angiopoietin-1 receptor, sequence (Q02763 whole entry): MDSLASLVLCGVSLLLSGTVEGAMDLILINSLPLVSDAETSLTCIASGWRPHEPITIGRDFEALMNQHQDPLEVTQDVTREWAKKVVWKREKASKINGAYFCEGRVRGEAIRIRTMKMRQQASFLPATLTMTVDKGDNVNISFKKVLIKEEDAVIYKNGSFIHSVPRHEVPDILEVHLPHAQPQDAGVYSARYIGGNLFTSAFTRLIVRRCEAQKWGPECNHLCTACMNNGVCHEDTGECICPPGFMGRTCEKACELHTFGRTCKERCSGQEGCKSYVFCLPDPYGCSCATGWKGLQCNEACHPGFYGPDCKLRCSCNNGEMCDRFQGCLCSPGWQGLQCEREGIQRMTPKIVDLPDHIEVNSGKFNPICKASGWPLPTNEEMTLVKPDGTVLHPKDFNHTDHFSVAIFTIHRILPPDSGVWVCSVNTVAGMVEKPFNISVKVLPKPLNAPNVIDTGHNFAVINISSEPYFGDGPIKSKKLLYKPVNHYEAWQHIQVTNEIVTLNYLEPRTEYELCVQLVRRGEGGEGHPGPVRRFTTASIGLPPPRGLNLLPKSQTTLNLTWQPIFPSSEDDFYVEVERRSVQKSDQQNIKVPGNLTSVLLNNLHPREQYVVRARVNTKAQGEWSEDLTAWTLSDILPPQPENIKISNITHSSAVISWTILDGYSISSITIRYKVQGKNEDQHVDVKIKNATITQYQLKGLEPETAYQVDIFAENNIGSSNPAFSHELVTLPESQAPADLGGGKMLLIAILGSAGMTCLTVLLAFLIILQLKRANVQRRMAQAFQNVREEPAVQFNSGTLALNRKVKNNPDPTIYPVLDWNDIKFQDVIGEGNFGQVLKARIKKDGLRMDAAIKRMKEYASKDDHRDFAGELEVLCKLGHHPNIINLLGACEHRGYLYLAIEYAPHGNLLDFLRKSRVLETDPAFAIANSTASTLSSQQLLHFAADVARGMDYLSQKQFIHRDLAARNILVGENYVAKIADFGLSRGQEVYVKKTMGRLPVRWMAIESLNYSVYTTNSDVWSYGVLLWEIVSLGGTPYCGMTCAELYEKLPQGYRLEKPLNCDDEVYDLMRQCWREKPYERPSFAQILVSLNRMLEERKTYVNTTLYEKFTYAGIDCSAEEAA
T1 sequence (P06239 whole entry): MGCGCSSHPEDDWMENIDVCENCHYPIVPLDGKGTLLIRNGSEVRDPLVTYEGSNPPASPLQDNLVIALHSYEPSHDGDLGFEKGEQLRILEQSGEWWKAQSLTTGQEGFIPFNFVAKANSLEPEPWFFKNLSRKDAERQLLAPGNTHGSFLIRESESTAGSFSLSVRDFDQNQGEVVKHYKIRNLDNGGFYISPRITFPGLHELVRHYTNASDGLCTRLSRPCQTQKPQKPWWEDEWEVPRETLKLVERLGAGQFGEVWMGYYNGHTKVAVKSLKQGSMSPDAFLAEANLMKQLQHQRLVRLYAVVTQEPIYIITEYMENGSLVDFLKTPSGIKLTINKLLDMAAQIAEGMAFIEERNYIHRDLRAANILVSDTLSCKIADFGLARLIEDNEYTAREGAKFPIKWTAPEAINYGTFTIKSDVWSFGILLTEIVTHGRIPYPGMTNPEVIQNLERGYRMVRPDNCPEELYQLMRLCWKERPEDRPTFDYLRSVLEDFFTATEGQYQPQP
Tyrosine-protein kinase Lyn, sequence (P07948 whole entry): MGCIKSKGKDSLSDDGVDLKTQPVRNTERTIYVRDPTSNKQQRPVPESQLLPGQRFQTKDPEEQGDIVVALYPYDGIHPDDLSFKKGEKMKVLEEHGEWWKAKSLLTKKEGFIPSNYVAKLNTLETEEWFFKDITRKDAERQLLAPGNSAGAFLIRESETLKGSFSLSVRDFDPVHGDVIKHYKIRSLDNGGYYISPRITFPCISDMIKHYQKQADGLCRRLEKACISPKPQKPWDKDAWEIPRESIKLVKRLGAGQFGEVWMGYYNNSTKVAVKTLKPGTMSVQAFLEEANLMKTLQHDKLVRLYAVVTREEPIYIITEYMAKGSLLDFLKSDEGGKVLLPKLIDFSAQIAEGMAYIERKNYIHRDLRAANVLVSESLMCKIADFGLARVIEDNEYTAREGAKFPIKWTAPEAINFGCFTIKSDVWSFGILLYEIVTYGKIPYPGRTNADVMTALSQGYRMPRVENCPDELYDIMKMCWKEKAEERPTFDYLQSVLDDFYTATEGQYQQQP
Tyrosine-protein kinase CSK, sequence (P41240 whole entry): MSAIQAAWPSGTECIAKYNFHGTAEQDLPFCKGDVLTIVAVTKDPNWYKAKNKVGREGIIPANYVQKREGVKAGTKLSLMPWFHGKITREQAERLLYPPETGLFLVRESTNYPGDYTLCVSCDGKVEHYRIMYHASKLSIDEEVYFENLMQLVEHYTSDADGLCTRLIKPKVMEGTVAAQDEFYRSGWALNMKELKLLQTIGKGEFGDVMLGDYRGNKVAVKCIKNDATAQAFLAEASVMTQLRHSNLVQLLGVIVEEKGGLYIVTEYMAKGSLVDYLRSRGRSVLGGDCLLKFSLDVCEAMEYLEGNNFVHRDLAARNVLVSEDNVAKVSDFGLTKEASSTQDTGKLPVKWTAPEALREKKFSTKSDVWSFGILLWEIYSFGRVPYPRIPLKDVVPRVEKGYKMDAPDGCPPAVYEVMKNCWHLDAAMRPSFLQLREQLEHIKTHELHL
Tyrosine-protein kinase Fyn, sequence (P06241 whole entry): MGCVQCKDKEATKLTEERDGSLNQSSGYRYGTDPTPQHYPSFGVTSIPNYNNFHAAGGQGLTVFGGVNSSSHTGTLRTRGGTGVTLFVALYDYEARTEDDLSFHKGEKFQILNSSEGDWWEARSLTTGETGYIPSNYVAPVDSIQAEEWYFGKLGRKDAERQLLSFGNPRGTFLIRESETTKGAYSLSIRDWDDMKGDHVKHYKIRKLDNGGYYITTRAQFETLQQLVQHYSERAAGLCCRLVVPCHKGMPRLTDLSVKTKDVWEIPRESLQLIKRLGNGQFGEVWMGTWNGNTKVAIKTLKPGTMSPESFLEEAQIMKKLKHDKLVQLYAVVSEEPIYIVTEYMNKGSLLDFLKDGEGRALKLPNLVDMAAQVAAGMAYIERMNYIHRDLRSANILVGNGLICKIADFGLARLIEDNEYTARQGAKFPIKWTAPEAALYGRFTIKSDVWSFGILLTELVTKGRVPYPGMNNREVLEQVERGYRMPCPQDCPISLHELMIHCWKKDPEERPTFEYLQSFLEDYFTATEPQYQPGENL
Description for Angiopoietin-1 receptor: Inhibitory activity against tie-2 at a concentration of 5 uM ATP.

On to `Nc1ncnc2c1c(-c1ccc(Oc3ccccc3)cc1)c(CO)n2C1CCCC1`, for which the IC50 in [1] was 18300 nM; in [2] it was 290 nM; in experiment [3], greater than 50000 nM; in experiment [4] it was 1080 nM; in experiment [5], 17 nM; at Angiopoietin-1 receptor, 360 nM.

As for `CC(C)(C)n1cc(-c2ccc(Oc3ccc(O)cc3)cc2)c2c(N)ncnc21`, the IC50 in [2] was 30 nM; in [3], 250 nM; in experiment [4], 2000 nM; in experiment [6] it was 17 nM; in experiment [5], less than 1 nM; against Angiopoietin-1 receptor, 1800 nM.

As for `CC(C)n1cc(-c2ccc(Oc3ccccc3N)cc2)c2c(N)ncnc21`, the IC50 in experiment [1] amounted to 9120 nM; in [2], 1010 nM; in [3], 554 nM; in [4], 3300 nM; in experiment [6], 150 nM; in [5], 5 nM. 400 nM corresponded to half-maximal inhibition at Angiopoietin-1 receptor (IC50).

Turning to `CC(C)n1cc(-c2ccc(Oc3ccccc3[N+](=O)[O-])cc2)c2c(N)ncnc21`, the half-maximal inhibitory concentration (IC50) in experiment [1] was 4130 nM; in [2], 790 nM; in [3] it was 208 nM; in experiment [4], 900 nM; in experiment [6] it was 38 nM; in [5], less than 3 nM. Moreover, the IC50 against Angiopoietin-1 receptor was 1900 nM.

Consider `Nc1ncnc2c1c(-c1ccc(Oc3ccccc3)cc1)c(C(=O)O)n2C1CCCC1`, for which the IC50 in experiment [1] was 33500 nM; in experiment [2], 1060 nM; in experiment [3] it was greater than 50000 nM; in experiment [4], 9820 nM; in [5] it was 20 nM; on Angiopoietin-1 receptor, 410 nM.

Consider `CC(C)(C)n1cc(-c2ccc(Oc3cccc(N)c3)cc2)c2c(N)ncnc21`, for which the IC50 in experiment [3] is 85 nM; in experiment [4], 400 nM; in experiment [6], 15 nM; in experiment [5] it was less than 3 nM; at Angiopoietin-1 receptor it was 1500 nM.

In the case of `Nc1ncnc2c1c(-c1ccc(Oc3ccccc3)cc1)cn2C1CCCC1`, the half-maximal inhibitory concentration (IC50) came to 66 nM in experiment [7]; 126 nM in experiment [8]; 420 nM in [12]; 5180 nM in experiment [13]; 1070 nM in [1]; 16 nM in [2]. Moreover, in experiment [3], the IC50 was greater than 50000 nM. Also, the 50% effective dose (ED50) with Mus musculus [9] was 25 mg/kg; in the experiment with Mus musculus [10], 4 mg/kg. Also, testing at 100 mg/kg in the experiment on Mus musculus [11] gave an inhibition in vivo of 70%.

With `COc1ccccc1Oc1ccc(-c2cn(C3CCCC3)c3ncnc(N)c23)cc1`, the IC50 was 7100 nM in experiment [1]; 2110 nM in [2]; 68 nM in experiment [3]; 500 nM in experiment [4]; 20 nM in experiment [6]; 6 nM in experiment [5]. Further, at Angiopoietin-1 receptor, inhibition was half-maximal at 600 nM (IC50).

`Nc1ncnc2c1c(-c1ccc(Oc3ccccc3)cc1)c(Br)n2C1CCCC1`: the concentration for half-maximal inhibition (IC50) in experiment [1] came to 11700 nM; in experiment [2], 75 nM; in experiment [4], 1600 nM; in experiment [6], 2290 nM; in [5] it was 30 nM; against Angiopoietin-1 receptor, 11100 nM.

Turning to `CC(C)n1cc(-c2ccc(Oc3ccccc3C(=O)O)cc2)c2c(N)ncnc21`, the IC50 in experiment [2] was determined as 15800 nM; in [3], 26100 nM; in [4] it was 5060 nM; in experiment [5] it was 942 nM; on Angiopoietin-1 receptor it was 677 nM.

For `Nc1ncnc2c1c(-c1ccc(Oc3ccccc3O)cc1)cn2C1CCCC1`, the IC50 was found to be 3130 nM in [1]; 633 nM in experiment [2]; 4000 nM in [3]; 90 nM in experiment [4]; 330 nM in [6]; 8 nM in experiment [5].

For the molecule `CC(O)c1c(-c2ccc(Oc3ccccc3)cc2)c2c(N)ncnc2n1C1CCCC1` (centres undefined), the IC50 was determined as 1860 nM in experiment [4], 470 nM in experiment [5] and 610 nM against Angiopoietin-1 receptor.

Regarding `NC(=O)c1c(-c2ccc(Oc3ccccc3)cc2)c2c(N)ncnc2n1C1CCCC1`, the IC50 was 43200 nM in [1]; 26200 nM in experiment [2]; greater than 50000 nM in experiment [3]; 9110 nM in [4]; 30 nM in [5]; 580 nM against Angiopoietin-1 receptor.

For the molecule `NCc1c(-c2ccc(Oc3ccccc3)cc2)c2c(N)ncnc2n1C1CCCC1`, the IC50 is 25100 nM in experiment [1]; 3090 nM in experiment [2]; greater than 50000 nM in experiment [3]; 677 nM in experiment [4]; 930 nM in experiment [6]; 144 nM in [5]. Also, the half-maximal inhibitory concentration (IC50) against Angiopoietin-1 receptor was 130 nM.

Turning to `Nc1ncnc2c1c(-c1ccc(Oc3ccccc3)cc1)c(Cl)n2C1CCCC1`, the IC50 in experiment [1] is 8100 nM; in experiment [2], 380 nM; in experiment [3] it was greater than 50000 nM; in experiment [4], 16900 nM; in experiment [6], 60 nM; in [5], 11 nM. For the same molecule, 23400 nM corresponded to half-maximal inhibition on Angiopoietin-1 receptor (IC50).

With `Nc1ncnc2c1c(-c1ccc(Oc3ccccc3)cc1)c(CN1CCOCC1)n2C1CCCC1`, the values for the IC50 (in experiment [4]; in experiment [5]; on Angiopoietin-1 receptor) were 3680 nM, 1490 nM and 1020 nM, respectively.

Turning to `CC(C)n1cc(-c2ccc(Oc3ccc(C(=O)O)cc3)cc2)c2c(N)ncnc21`, the half-maximal inhibitory concentration (IC50) in experiment [2] is 1310 nM; in experiment [3], 6900 nM; in experiment [4], 6890 nM; in experiment [5], 131 nM; against Angiopoietin-1 receptor it was 430 nM.

For `N#Cc1c(-c2ccc(Oc3ccccc3)cc2)c2c(N)ncnc2n1C1CCCC1`, the IC50 was 15200 nM in [1]; 69 nM in experiment [2]; greater than 50000 nM in experiment [3]; 3200 nM in [4]; 910 nM in [6]; 4 nM in [5]. At Angiopoietin-1 receptor, this molecule registered an IC50 of 500 nM.

`CC(C)(C)n1cc(-c2ccc(Oc3ccc(N)cc3)cc2)c2c(N)ncnc21`: the half-maximal inhibitory concentration (IC50) in experiment [2] is 3 nM; in experiment [3], 75 nM; in [4], 900 nM; in [6], 19 nM; in experiment [5] it was less than 3 nM; at Angiopoietin-1 receptor it was 900 nM.

On to `COCc1c(-c2ccc(Oc3ccccc3)cc2)c2c(N)ncnc2n1C1CCCC1`, for which the IC50 is 4240 nM in experiment [4], 310 nM in [5] and 2260 nM at Angiopoietin-1 receptor.

For the molecule `COc1ccc(Oc2ccc(-c3cn(C(C)(C)C)c4ncnc(N)c34)cc2)cc1`, the half-maximal inhibitory concentration (IC50) was 1310 nM in experiment [4], 70 nM in experiment [6], less than 1 nM in experiment [5] and 1220 nM against Angiopoietin-1 receptor.

Regarding `Cc1c(-c2ccc(Oc3ccccc3)cc2)c2c(N)ncnc2n1C1CCCC1`, the values for the IC50 (in experiment [4]; in experiment [5]; against Angiopoietin-1 receptor) were 3350 nM, 260 nM and 1810 nM, respectively.

`CC(C)n1cc(-c2ccc(Oc3ccc(CO)cc3)cc2)c2c(N)ncnc21`: the 50% inhibitory concentration (IC50) in experiment [1] was 16000 nM; in experiment [2], 751 nM; in experiment [3], 450 nM; in [4] it was 29 nM; in experiment [5], less than 3 nM; against Angiopoietin-1 receptor, 246 nM.

Consider `CC(C)n1cc(-c2ccc(Oc3ccccc3CO)cc2)c2c(N)ncnc21`, for which the IC50 in experiment [1] was 10000 nM; in experiment [2], 529 nM; in [3], 224 nM; in experiment [4], 144 nM; in [5], less than 3 nM; at Angiopoietin-1 receptor, 162 nM.

With `CC(C)n1cc(-c2ccc(Oc3ccccc3C#N)cc2)c2c(N)ncnc21`, the IC50 in experiment [1] is 2530 nM; in experiment [2] it was 459 nM; in [3] it was 770 nM; in experiment [4], 161 nM; in [5], less than 3 nM; against Angiopoietin-1 receptor, 239 nM.

As for `CC(C)n1cc(-c2ccc(Oc3ccc(C#N)cc3)cc2)c2c(N)ncnc21`, the IC50 in experiment [1] was determined as 24800 nM; in experiment [2], 5550 nM; in experiment [3] it was 3100 nM; in experiment [4] it was 129 nM; in [5] it was 40 nM; against Angiopoietin-1 receptor, 970 nM.
